Like-named read-outs stand apart in the source and are kept apart here.
Experiments:
[1] = In vitro human microsomal stability assay; format: in vitro ADME; details: human, microsomes, 0.5 h, 0.5 μM, pH 7.4
Outline: (§1)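 NADPH-fortified liver microsome incubations at 37° C. served for both species: Sprague-Dawley rat and human.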

[2] = In vitro rat microsomal stability assay; format: in vitro ADME, rat (Sprague-Dawley); details: Sprague-Dawley, rat, microsomes, 0.5 h, 0.5 μM, pH 7.4
Outline: as §1

human TRPV3 = target: T1, human TRPV3 (Homo sapiens, UniProt Q8NET8); experiment: In vitro antagonism of recombinant human TRPV3 activation (FLIPR Tetra calcium assay); format: cell-based; details: HEK293 cells stably expressing human TRPV3, agonist 2-APB at 80 μM
T1 construct: expressed in transfected cells
T1 sequence (Q8NET8 1-790): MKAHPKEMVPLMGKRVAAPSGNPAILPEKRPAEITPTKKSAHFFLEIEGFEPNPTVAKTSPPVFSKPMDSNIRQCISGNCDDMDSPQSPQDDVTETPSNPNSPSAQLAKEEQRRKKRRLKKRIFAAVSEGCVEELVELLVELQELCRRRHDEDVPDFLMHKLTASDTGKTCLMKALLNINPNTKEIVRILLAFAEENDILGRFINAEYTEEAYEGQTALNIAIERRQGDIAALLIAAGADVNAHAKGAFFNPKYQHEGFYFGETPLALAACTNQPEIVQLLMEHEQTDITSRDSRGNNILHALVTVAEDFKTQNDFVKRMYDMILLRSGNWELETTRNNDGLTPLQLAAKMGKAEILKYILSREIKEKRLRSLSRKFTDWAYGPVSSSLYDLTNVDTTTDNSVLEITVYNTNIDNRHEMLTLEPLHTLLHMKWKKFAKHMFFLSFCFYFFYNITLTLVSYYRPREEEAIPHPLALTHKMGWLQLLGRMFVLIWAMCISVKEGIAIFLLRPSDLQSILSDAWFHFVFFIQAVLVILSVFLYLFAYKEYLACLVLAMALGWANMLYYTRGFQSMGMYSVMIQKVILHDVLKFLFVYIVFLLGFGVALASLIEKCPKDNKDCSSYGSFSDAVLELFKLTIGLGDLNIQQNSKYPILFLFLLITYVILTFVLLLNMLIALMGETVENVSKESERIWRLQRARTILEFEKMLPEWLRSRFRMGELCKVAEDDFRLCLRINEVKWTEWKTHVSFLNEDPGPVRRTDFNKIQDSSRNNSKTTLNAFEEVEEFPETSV
Outline: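 HEK293 cells stably expressing human TRPV3, loaded with Calcium-4 dye for 90–120 min, received compound in DPBS, then 80 μM 2-APB (EC80) 3 min later. Max-minus-min fluorescence expressed as % of 2-APB response without antagonist; IC50 values mostly averages of n≥2 runs.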

[3] = actual measured value shown parenthetically, in most cases average of at least two runs, read-out: IC50
[4] = reported range, read-out: IC50 (range class)

Structure (SMILES)	HUMAN MICROSOMAL STABILITY (% REMAINING AFTER 30 MINUTES) [1]	RAT MICROSOMAL STABILITY (% REMAINING AFTER 30 MINUTES) [2]	IC50 (human TRPV3; [3])	IC50 (human TRPV3; [4])
OC(C1CCCc2cccnc21)C1(c2ccccc2C(F)(F)F)CCC1 (stereo not drawn) [Example 195, (anti)-5,6,7,8-tetrahydroquinolin-8-yl{1-[2-(trifluoromethyl)phenyl]-cyclobutyl}methanol]	<0.01%	<0.01%	> 20 µM	> 20 µM
OC(C1CCc2cccnc21)C1(c2ccccc2C(F)(F)F)CCC1 (stereo not drawn) [Example 197, (anti)-6,7-dihydro-5H-cyclopenta[b]pyridin-7-yl{1-[2-(trifluoromethyl)-phenyl]cyclobutyl}methanol]	0.26%	<0.01%	> 20 µM	> 20 µM
OC(C1CCc2cccnc21)C1(c2ccccc2C(F)(F)F)CCC1 (stereo not drawn) [Example 198, (syn)-6,7-dihydro-5H-cyclopenta[b]pyridin-7-yl{1-[2-(trifluoromethyl)-phenyl]cyclobutyl}methanol]	0.05%	<0.01%	> 20 µM	> 20 µM
O[C@H](c1ccccn1)[C@]1(c2ccc(C(F)(F)F)cc2)C[C@H](O)C1 [Example 200, cis-3-[(S)-hydroxy(pyridin-2-yl)methyl]-3-[4-(trifluoromethyl)phenyl]-cyclobutanol]	>85%	>85%	5.25 µM	
OC(c1ccccn1)C1(c2ccc(OC(F)(F)F)cc2)CC2(C1)OCCO2 (stereo not drawn) [Example 202, pyridin-2-yl{2-[4-(trifluoromethoxy)phenyl]-5,8-dioxaspiro[3.4]oct-2-yl}-methanol]	73%	<0.01%	5.17 µM	
NC1CCCC1C(O)C1(c2cccc(C(F)(F)F)c2)CCC1 (stereo not drawn) [Example 204, (2-aminocyclopentyl) {1-[3-(trifluoromethyl)phenyl]cyclobutyl}methanol]	>85%	>85%	1.6 µM	
NC1CCCC1C(O)C1(c2ccc(C(F)(F)F)cc2)CCC1 (stereo not drawn) [Example 205, (2-aminocyclopentyl) {1-[4-(trifluoromethyl)phenyl]cyclobutyl}methanol]	>85%	>85%	3.87 µM	
NC1CCCC1C(O)C1(c2ccc(OC(F)(F)F)cc2)CCC1 (stereo not drawn) [Example 206, (2-aminocyclopentyl) {1-[4-(trifluoromethoxy)phenyl]cyclobutyl}methanol]	83%	62%	2.63 µM	
NC1CCCCC1C(O)C1(c2cccc(C(F)(F)F)c2)CCC1 (stereo not drawn) [Example 212, (2-aminocyclohexyl) {1-[3-(trifluoromethyl)phenyl]cyclobutyl}methanol]	>85%	3.9%	2.87 µM	
NC1CCC1C(O)C1(c2cccc(C(F)(F)F)c2)CCC1 (stereo not drawn) [Example 213, (2-aminocyclobutyl) {1-[3-(trifluoromethyl)phenyl]cyclobutyl}methanol]	>85%	72%	3.24 µM	
N[C@@H]1CCC[C@@H]1[C@@H](O)C1(c2ccc(Cl)c(Cl)c2)CCC1 [Example 216, (R)-[(1S,2R)-2-aminocyclopentyl][1-(3,4-dichlorophenyl)cyclobutyl]-methanol]	>85%	41%	2.26 µM	
N[C@H]1CCC[C@H]1[C@H](O)C1(c2ccc(Cl)c(Cl)c2)CCC1 [Example 217, (S)-[(1R,2S)-2-aminocyclopentyl][1-(3,4-dichlorophenyl)cyclobutyl]-methanol]	73%	68%	3.99 µM	

— patent publication US8772499B2, “TRPV3 modulators” (AbbVie Inc., priority 2011, dated 2014)
